The experiment deals with T1, chicken gizzard smooth muscle myosin subfragment-1 chemically crosslinked to cardiac or skeletal actin (Gallus gallus, UniProt P10587).
T1 construct: chicken gizzard smooth muscle myosin subfragment-1; from tissue; host or cells: chicken gizzard
The experiment can be described thus: Smooth muscle myosin ATPase dose response assay (pyruvate kinase/horseradish peroxidase/pyruvate oxidase-coupled, amplex red fluorescence). Format: biochemical. The settings on record: read-out: IC50 Arithmetic Mean. A digest of the protocol:
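EDC/NHS-crosslinked S1–actin, amount set per prep by rate titration. Buffer: 12 mM K-PIPES pH 7.00 (22° C), 100 mM KCl, 2 mM MgCl2, 0.15 mM ATP, 0.1 mM PEP, 2 mM KPi, 0.1 mM amplex red. Read ex 480/em 615 nm; IC50 = midpoint, 4-param Hill fit.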

In patent publication US7932270B2 (Cytokinetics, Inc., priority 2006, dated 2011) one finds IC50 data, which are given here for 13 compounds.

T1 sequence (P02607 2-151): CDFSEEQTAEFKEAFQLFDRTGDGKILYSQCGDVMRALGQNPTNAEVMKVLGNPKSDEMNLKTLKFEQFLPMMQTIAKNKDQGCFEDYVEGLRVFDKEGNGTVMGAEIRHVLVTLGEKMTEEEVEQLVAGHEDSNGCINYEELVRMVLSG
T1 sequence (P10587 84-789): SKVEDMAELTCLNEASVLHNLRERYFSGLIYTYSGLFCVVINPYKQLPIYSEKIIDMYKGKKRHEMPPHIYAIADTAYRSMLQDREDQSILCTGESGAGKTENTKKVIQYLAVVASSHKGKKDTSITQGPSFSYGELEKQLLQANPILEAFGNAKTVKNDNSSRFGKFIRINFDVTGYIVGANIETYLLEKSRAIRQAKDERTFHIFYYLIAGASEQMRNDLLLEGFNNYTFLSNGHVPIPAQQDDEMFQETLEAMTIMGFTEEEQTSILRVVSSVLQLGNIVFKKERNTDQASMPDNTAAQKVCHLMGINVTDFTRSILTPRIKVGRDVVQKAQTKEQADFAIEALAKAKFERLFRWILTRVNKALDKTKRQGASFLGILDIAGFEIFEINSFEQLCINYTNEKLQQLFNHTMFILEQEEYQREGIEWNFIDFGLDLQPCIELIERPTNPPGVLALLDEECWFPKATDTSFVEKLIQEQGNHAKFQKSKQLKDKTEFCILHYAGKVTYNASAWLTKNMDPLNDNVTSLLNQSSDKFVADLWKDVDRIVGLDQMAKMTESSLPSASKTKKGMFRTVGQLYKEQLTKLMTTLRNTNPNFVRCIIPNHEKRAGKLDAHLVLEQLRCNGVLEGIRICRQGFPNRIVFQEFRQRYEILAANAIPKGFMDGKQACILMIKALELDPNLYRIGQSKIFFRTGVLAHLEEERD

Broadly, the IC50 is the concentration at which inhibition is half-maximal. Take `O=C(NCc1ccncc1)c1ccc(-c2ccccc2)nc1NCCc1ccccn1` [{6-phenyl-2-[(2-(2-pyridyl)ethyl)amino](3-pyridyl)}-N-(4-pyridylmethyl)carboxamide]: the IC50 is 1290 nM.

Regarding `O=C(NCc1cc[nH]n1)c1ccc(-c2ccccc2)nc1NCCc1ccccn1` [{6-phenyl-2-[(2-(2-pyridyl)ethyl)amino](3-pyridyl)}-N-(pyrazol-3-ylmethyl)carboxamide], the IC50 turned out to be 711 nM.

As for `C=CCNC(=O)c1ccc(-c2ccccc2)nc1NCCc1ccccn1` [{6-phenyl-2-[(2-(2-pyridyl)ethyl)amino](3-pyridyl)}-N-prop-2-enylcarboxamide], the IC50 is 3120 nM.

Turning to `O=C(NCc1cccnc1)c1ccc(-c2ccccc2)nc1NCCc1cccs1` [{6-phenyl-2-[(2-(2-thienyl)ethyl)amino](3-pyridyl)}-N-(3-pyridylmethyl)carboxamide], the IC50 is 149 nM.

For the compound `O=C(NCc1cccnc1)c1ccc(-c2ccccc2)nc1NCCc1cccnc1` [{6-phenyl-2-[(2-(3-pyridyl)ethyl)amino](3-pyridyl)}-N-(3-pyridylmethyl)carboxamide], the IC50 came out at 2190 nM.

As to `O=C(NCCc1ccccn1)c1ccc(-c2ccccc2)nc1NCCc1ccccc1` [{6-phenyl-2-[(2-phenylethyl)amino](3-pyridyl)}-N-(2-(2-pyridyl)ethyl)carboxamide], the IC50 was 5250 nM.

As to `O=C(NCCc1cccnc1)c1ccc(-c2ccccc2)nc1NCCc1ccccc1` [{6-phenyl-2-[(2-phenylethyl)amino](3-pyridyl)}-N-(2-(3-pyridyl)ethyl)carboxamide], the IC50 was determined as 3090 nM.

As for `O=C(NCc1cccnc1)c1ccc(-c2ccccc2)nc1NCCc1ccccc1` [{6-phenyl-2-[(2-phenylethyl)amino](3-pyridyl)}-N-(3-pyridylmethyl)carboxamide], the IC50 was 151 nM.

Take `C=CCNC(=O)c1ccc(-c2ccccc2)nc1NCCc1ccccc1` [{6-phenyl-2-[(2-phenylethyl)amino](3-pyridyl)}-N-prop-2-enylcarboxamide]: the IC50 was determined as 1060 nM.

For the compound `O=C(NCc1cccnc1)c1ccc(-c2ccccc2)nc1NCCOc1ccccc1` [{6-phenyl-2-[(2-phenyoxyethyl)amino](3-pyridyl)}-N-(3-pyridylmethyl)carboxamide], the IC50 was found to be 20200 nM.

`O=C(NCc1cccnc1)c1ccc(-c2ccccc2)nc1NCCCc1ccccc1` [{6-phenyl-2-[(3-phenylpropyl)amino](3-pyridyl)}-N-(3-pyridylmethyl)carboxamide]: the IC50 was found to be 5690 nM.

On to `O=C(NCc1cccnc1)c1ccc(-c2ccccc2)nc1NCc1ccccc1` [{6-phenyl-2-[benzylamino](3-pyridyl)}-N-(3-pyridylmethyl)carboxamide], for which the IC50 is 2790 nM.

For the compound “(2-{[2-(2-oxoimidazolidinyl)ethyl]amino}-6-phenyl(3-pyridyl))-N-(3-pyridylmethyl)carboxamide”, the IC50 came to 70600 nM.
